# Results reported in US9512175B2, “Macrocyclic inhibitors of flaviviridae viruses” (Gilead Sciences, Inc., priority 2012, dated 2016).
# Where two headings read alike, the source gives them in different places.
# Key:
# [1] = target: cyclophilin A (Homo sapiens, UniProt P62937); assay: Cyclophilin A TR-FRET competitive binding assay; details: IC50 ranges, competition with CsA-Cy5 for His-tagged CypA, two-hour incubation
# Procedure: Cyclophilin A TR-FRET Competitive Binding Assay
# Inhibitor potency was measured using a competitive binding assay with a time-resolved fluorescence resonance energy transfer (TR-FRET) readout. […] An IC50 value was calculated using a four-parameter logistic fit.
# [2] = tested on: HCV replicon (Replicon 1a); assay: anti-HCV activity in Huh-7 cell line harboring a HCV replicon (Replicon 1a); assay type: cell-based; details: for inhibition at 1 µM: Hepatitis C virus, Huh-7, 72 h
# [3] = read-out: Replicon 1a % inhibition at 1 μM, 1 μM, human hepatoma Huh-7 HCV replicon cells, 3 days, luciferase readout
# [4] = read-out: Replicon 1a % inhibition at 1 μM
# Chain of cyclophilin A (P62937 whole entry, species assumed): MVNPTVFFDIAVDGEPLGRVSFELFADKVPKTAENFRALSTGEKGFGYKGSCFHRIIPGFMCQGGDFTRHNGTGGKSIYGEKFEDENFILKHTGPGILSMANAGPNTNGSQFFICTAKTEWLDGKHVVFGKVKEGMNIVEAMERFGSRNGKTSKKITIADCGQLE
SMILES,IC50 ([1]; read-out: TR-FRET),"inhibition at 1 µM [2, 3]",IC50 ([1]; TR-FRET),"inhibition at 1 µM [2, 4]","Replicon 1a % inhibition at 1 μM ([2]; 1 μM, human hepatoma Huh-7 HCV replicon cells, 3 days, luciferase readout)"
CC(C)[C@@H]1NC(=O)C2(/C=C/c3ccc4ccc(nc4c3)[C@@H](C)OC(=O)[C@@H]3CCCN(N3)C(=O)[C@H](C)NC1=O)COC2 [Compound 73],< 100 nM,94%,,,
CC(C)[C@@H]1NC(=O)C(CO)(CO)/C=C/c2ccc3ccc(nc3c2)[C@@H](C)OC(=O)[C@@H]2CCCN(N2)C(=O)[C@H](C)NC1=O [Compound 76],< 100 nM,63%,,,
CC(C)[C@@H]1NC(=O)[C@@](C)(COCC[Si](C)(C)C)/C=C/c2ccc3ccc(nc3c2)[C@@H](C)OC(=O)[C@@H]2CCCN(N2)C(=O)[C@H](C)NC1=O [Compound 77],,,< 100 nM,99%,
CC(C)[C@@H]1NC(=O)[C@@](C)(CO)/C=C/c2ccc3ccc(nc3c2)[C@@H](C)OC(=O)[C@@H]2CCCN(N2)C(=O)[C@H](C)NC1=O [Compound 78],,,< 100 nM,99%,
CC(C)[C@@H]1NC(=O)[C@](C)(COCC[Si](C)(C)C)/C=C/c2ccc3ccc(nc3c2)[C@@H](C)OC(=O)[C@@H]2CCCN(N2)C(=O)[C@H](C)NC1=O [Compound 79],,,< 100 nM,96%,
CC(C)[C@@H]1NC(=O)[C@](C)(CO)/C=C/c2ccc3ccc(nc3c2)[C@@H](C)OC(=O)[C@@H]2CCCN(N2)C(=O)[C@H](C)NC1=O [Compound 80],,,< 100 nM,97%,
CC(C)[C@@H]1NC(=O)[C@H](CC2CC2)/C=C/c2ccc3ccc(nc3c2)[C@@H](C)OC(=O)[C@@H]2CCCN(N2)C(=O)[C@H](C)NC1=O [Compound 81],,,< 100 nM,100%,
CC(C)[C@@H]1NC(=O)C(C)(C)/C=C/c2ccc3ccc(nc3c2)[C@@H](C)OC(=O)[C@@H]2CCCN(N2)C(=O)[C@H](CO)NC1=O [Compound 82],< 100 nM,99%,,,
CC(C)[C@@H]1NC(=O)[C@@H]([C@@H](C)O)/C=C/c2ccc3ccc(nc3c2)[C@@H](C)OC(=O)[C@@H]2CCCN(N2)C(=O)[C@H](C)NC1=O [Compound 83],< 100 nM,99%,,,
CC(C)[C@H]1C(=O)N[C@@H](C)C(=O)N2CCC[C@H](N2)C(=O)N[C@H](C)c2ccc3ccc(cc3n2)/C=C/C2(C)CCN1C2=O [Compound 84],< 100 nM,63%,,,
CC(C)[C@@H]1NC(=O)C(C)(C(C)O)/C=C/c2ccc3ccc(nc3c2)[C@@H](C)OC(=O)[C@@H]2CCCN(N2)C(=O)[C@H](C)NC1=O (stereo partly drawn) [Compound 89],< 100 nM,99%,,,
CC(C)[C@@H]1NC(=O)C(C)(C(C)O)/C=C/c2ccc3ccc(nc3c2)[C@@H](C)OC(=O)[C@@H]2CCCN(N2)C(=O)[C@H](C)NC1=O (stereo partly drawn) [Compound 90],< 100 nM,,,,100%
CC(C)[C@@H]1NC(=O)C(C)(C)/C=C/c2ccc3ccc(nc3c2)[C@@H](C)OC(=O)[C@@H]2CCCN(N2)C(=O)[C@H]([C@@H](C)O)NC1=O [Compound 91],< 100 nM,99%,,,
CC(C)[C@@H]1NC(=O)C(C)(C)/C=C/c2ccc3ccc(nc3c2)[C@@H](C)OC(=O)[C@@H]2CCCN(N2)C(=O)[C@H](CC(=O)OC(C)(C)C)NC1=O [Compound 92],< 100 nM,100%,,,
CC(C)[C@@H]1NC(=O)C(C)(C)/C=C/c2ccc3ccc(nc3c2)[C@@H](C)OC(=O)[C@@H]2CCCN(N2)C(=O)[C@H](CC(=O)O)NC1=O [Compound 93],< 100 nM,68%,,,
CC(C)[C@@H]1NC(=O)C(C)(C)/C=C/c2ccc3ccc(nc3c2)[C@@H](C)OC(=O)[C@@H]2CCCN(N2)C(=O)[C@H](Cc2cn(C(c3ccccc3)(c3ccccc3)c3ccccc3)cn2)NC1=O [Compound 94],< 100 nM,96%,,,
CC(C)[C@@H]1NC(=O)C(C)(C)/C=C/c2ccc3ccc(nc3c2)[C@@H](C)OC(=O)[C@@H]2CCCN(N2)C(=O)[C@H](Cc2c[nH]cn2)NC1=O [Compound 95],< 100 nM,68%,,,
CC(C)[C@@H]1NC(=O)C(C)(C)/C=C/c2ccc3cnc(nc3c2)[C@@H](C)OC(=O)[C@@H]2CCCN(N2)C(=O)[C@H](C)NC1=O [Compound 96],< 100 nM,100%,,,
CC(C)[C@@H]1NC(=O)C(C)(C)/C=C/c2ccc3ccc(nc3c2)[C@@H](C)OC(=O)[C@@H]2CCCN(N2)C(=O)[C@H](CC(=O)N(C)C)NC1=O [Compound 97],< 100 nM,98%,,,
CC(C)[C@@H]1NC(=O)C(C)(C)/C=C/c2ccc3ccc(nc3c2)[C@@H](C)OC(=O)[C@@H]2CCCN(N2)C(=O)[C@H](CC(=O)N2CCCCC2)NC1=O [Compound 98],< 100 nM,,,95%,
CC(C)[C@@H]1NC(=O)C(C)(C)/C=C/c2ccc3ccc(nc3c2)[C@@H](C)OC(=O)[C@@H]2CCCN(N2)C(=O)[C@H](CC(=O)N2CCCC2)NC1=O [Compound 99],< 100 nM,96%,,,

SMILES,IC50 ([1]; read-out: TR-FRET),"inhibition at 1 µM [2, 3]",IC50 ([1]; TR-FRET),"inhibition at 1 µM [2, 4]","Replicon 1a % inhibition at 1 μM ([2]; 1 μM, human hepatoma Huh-7 HCV replicon cells, 3 days, luciferase readout)"
CC(C)[C@@H]1NC(=O)C(C)(C(C)(C)O)/C=C/c2ccc3ccc(nc3c2)[C@@H](C)OC(=O)[C@@H]2CCCN(N2)C(=O)[C@H](C)NC1=O (stereo partly drawn) [Compound 101],< 100 nM,99%,,,
CC(C)[C@@H]1NC(=O)[C@@](C)(CO)/C=C/c2ccc3ccc(cc3c2)[C@@H](C)OC(=O)[C@@H]2CCCN(N2)C(=O)[C@H](C)NC1=O [Compound 104],< 100 nM,98%,,,
CC(C)[C@@H]1NC(=O)C(C)(C)/C=C/c2ccc3ccc(nc3c2)[C@@H](C)OC(=O)[C@@H]2CCCN(N2)C(=O)[C@H](COC(F)F)NC1=O [Compound 106],< 100 nM,99%,,,
COC[C@@]1(C)/C=C/c2ccc3ccc(nc3c2)[C@@H](C)OC(=O)[C@@H]2CCCN(N2)C(=O)[C@H](C)NC(=O)[C@H](C(C)C)NC1=O [Compound 107],< 100 nM,100%,,,
CC(C)[C@@H]1NC(=O)C(C)(C)/C=C/c2ccc3ccc(nc3c2)[C@@H](C)OC(=O)[C@@H]2CCCN(N2)C(=O)[C@H](Cc2cscn2)NC1=O [Compound 110],< 100 nM,100%,,,
CC(C)[C@@H]1NC(=O)C(C)(C)/C=C/c2ccc3ccc(nc3c2)[C@@H](C)NC(=O)[C@@H]2CCCN(N2)C(=O)[C@H](C)NC1=O [Compound 111],< 100 nM,87%,,,
CC(C)[C@@H]1NC(=O)C(C)(C)/C=C/c2ccc3ccc(nc3c2)[C@@H](C)OC(=O)[C@@H]2CCCN(N2)C(=O)[C@H](COCC2(C)COC2)NC1=O [Compound 114],< 100 nM,99%,,,
CC(C)[C@@H]1NC(=O)C(C)(C)/C=C/c2ccc3ccc(nc3c2)C(C)N(C)C(=O)[C@@H]2CCCN(N2)C(=O)[C@H](C)NC1=O (stereo partly drawn) [Compound 115],< 100 nM,92%,,,
CC(C)[C@@H]1NC(=O)C(C)(C)/C=C/c2ccc3ccc(nc3c2)[C@@H](C)OC(=O)[C@]2(C)CCCN(N2)C(=O)[C@H](C)NC1=O [Compound 119],< 100 nM,98%,,,
CC(C)[C@@H]1NC(=O)C(C)(C)/C=C/c2ccc3ccc(nc3c2)[C@@H](C)NC(=O)[C@@H]2CCCN(N2)C(=O)[C@H](Cc2ccccc2)NC1=O [Compound 120],< 100 nM,91%,,,
CC(C)[C@@H]1NC(=O)C2(/C=C/c3ccc4ccc(nc4c3)[C@@H](C)NC(=O)[C@@H]3CCCN(N3)C(=O)[C@H](C)NC1=O)CCC(F)(F)CC2 [Compound 122],< 100 nM,96%,,,
CC(C)[C@@H]1NC(=O)C2(/C=C/c3ccc4ccc(nc4c3)[C@@H](C)OC(=O)[C@@H]3CCCN(N3)C(=O)[C@H](C)NC1=O)CCOC(C)(C)C2 (stereo partly drawn) [Compound 123],< 100 nM,100%,,,
CC[C@H](C)[C@@H]1NC(=O)C(C)(C)/C=C/c2ccc3ccc(nc3c2)[C@@H](C)OC(=O)[C@@H]2CCCN(N2)C(=O)[C@H](C)NC1=O [Compound 125],< 100 nM,100%,,,
CC(C)[C@@H]1NC(=O)C2(/C=C/c3ccc4ccc(nc4c3)[C@@H](C)OC(=O)[C@@H]3CCCN(N3)C(=O)[C@H](C)NC1=O)CCN(C(=O)OC(C)(C)C)CC2 [Compound 126],< 100 nM,100%,,,
CC(C)[C@@H]1NC(=O)C2(/C=C/c3ccc4ccc(nc4c3)[C@@H](C)OC(=O)[C@@H]3CCCN(N3)C(=O)[C@H](C)NC1=O)CCNCC2 [Compound 127],< 100 nM,2%,,,
CCN1CCC2(/C=C/c3ccc4ccc(nc4c3)[C@@H](C)OC(=O)[C@@H]3CCCN(N3)C(=O)[C@H](C)NC(=O)[C@H](C(C)C)NC2=O)CC1 [Compound 129],< 100 nM,,,96%,
CC(C)[C@@H]1NC(=O)C2(/C=C/c3ccc4ccc(nc4c3)[C@@H](C)OC(=O)[C@@H]3CCCN(N3)C(=O)[C@H](C)NC1=O)CCN(S(C)(=O)=O)CC2 [Compound 130],< 100 nM,100%,,,
CC(C)[C@@H]1NC(=O)C2(/C=C/c3ccc4ccc(nc4c3)[C@@H](C)OC(=O)[C@@H]3CCCN(N3)C(=O)[C@H](C)NC1=O)CCN(CC#N)CC2 [Compound 131],< 100 nM,,,77%,
COC(=O)N1CCC2(/C=C/c3ccc4ccc(nc4c3)[C@@H](C)OC(=O)[C@@H]3CCCN(N3)C(=O)[C@H](C)NC(=O)[C@H](C(C)C)NC2=O)CC1 [Compound 132],< 100 nM,,,100%,
CC(C)[C@@H]1NC(=O)C2(/C=C/c3ccc4ccc(nc4c3)[C@@H](C)OC(=O)[C@@H]3CCCN(N3)C(=O)[C@H](C)NC1=O)CCN(C(=O)N1CCCC1)CC2 [Compound 133],< 100 nM,98%,,,
CC(C)[C@@H]1NC(=O)C2(/C=C/c3ccc4ccc(nc4c3)[C@@H](C)OC(=O)[C@@H]3CCCN(N3)C(=O)[C@H](C)NC1=O)CCN(S(=O)(=O)CC1CC1)CC2 [Compound 134],< 100 nM,99%,,,
